The text below walks through data of patent US20240059719A1, “GOLD COMPLEXES AS ANTICANCER AGENT” (King Saud University, priority 2023, published 2024).

Holding throughout (type): cell-based
In test [1] the test system is MCF-7 cells. Put plainly: Intracellular ATP analysis (colorimetric ATP assay kit). The note with it: 0-100 μM, 12 h. The protocol: The intracellular ATP levels were determined after the exposure of PBTDG and erlotinib (0-100 μM) to MCF-7 cells for 12 h using a colorimetric ATP assay kit (Sigma-Aldrich, USA) according to the manufacturer instructions. The unknown concentrations of the test samples were calculated using the linear standard curve generated from the concentration of 0-12 nmole ATP. […]

For test [2], the system named is MCF-7 cells. Put plainly: Mitochondrial membrane potential analysis (Muse MitoPotential flow cytometry). The note with it: 24 hours. The protocol: Muse MitoPotential Flow Cytometry Kit (Luminex, IL, USA) was used for measuring mitochondrial membrane potential (MMP). MCF-7 cells were seeded (15000 cells per well) in a 6-wells culture plate. […] A negative control (DMSO) was run in parallel. Finally, the cells were stained with Mito Potential reagents provided in the kit, following the manufacturer's instructions, and then analyzed by flow cytometry.

Test [3] deals with MCF-7 breast cancer cells. The test can be described thus: MTT cell viability analysis (cytotoxicity). The note with it: Homo sapiens, MCF7, MCF-7 cells, 24 hours treatment. The protocol:
MTT (3-(4,5-dimethylthiazol-2-yl)-2,5-diphenyltetrazolium bromide) assay was used for cell viability analysis. MCF-7 breast cancer cells were seeded in a cell culture plate (96-well) at 10^4 cells per well in 200 μl of Dulbecco's modified Eagle medium (DMEM). […] MTT solution (20 μl of 5 mg/mL) was added to each well of the micro plate, which were then incubated in a CO2 incubator at 37° C. for 3 hours. After incubation, the culture medium was removed and 100 μL of isopropanol were added to each well of the micro plate and the absorbance was recorded at 570 nm against reagent blank. The cell viability was calculated using the formula:
Cell viability %=100*(Absorbance sample)/(Absorbance blank)

Test [4] concerns MCF-7 cells. Put plainly: Reactive oxygen species analysis (Muse Oxidative Stress Kit, flow cytometry). The note with it: 24 h. The procedure: For the analysis of reactive oxygen species (ROS), MCF-7 cells were seeded ([…]) in a 6-well plate and allowed to grow for 24 h at 37° C. under the environment of 5% CO2 and 95% humidity. […] DMS( )served as a negative control. The final DMSO concentration in each well was less than 0.1%. After harvesting the cells, they were stained with Muse® Oxidative Stress Kit (Luminex, IL, USA) following the manufacturer's instructions. The percentage of cells with oxidative stress was measured by flow cytometry analysis.

`C#Cc1cccc(Nc2ncnc3cc(OCCOC)c(OCCOC)cc23)c1` [erlotinib]: in test [1], the “Effect on intracellular ATP levels” value is listed as “depleted”.
`CNC(=O)c1cc(Oc2ccc(NC(=O)Nc3ccc(Cl)c(C(F)(F)F)c3)cc2)ccn1` [sorafenib]: the values for the Mitochondrial membrane depolarization in test [2] (1.0 μM) and in test [2] (5.0 μM) were 2.7% and 12.0%, respectively. In addition, in test [3], the IC50 stood at 4.45 µM. For the same molecule, the ROS generation in test [4] (1 μM) is 73.76%; in test [4] (5 μM) it was 122.11%.

By IC50 is commonly meant the concentration at which inhibition is half-maximal.
